The test system of assay [1] is NASH model mice. In words: NASH model mice (STZ + high-fat diet), intraperitoneal trametinib study: liver histology, NAFLD activity score, fibrosis area, liver weight. It is filed as in vivo, mouse (C57BL/6). On the set-up: key to NAFLD activity score (NAS): NAS: sum of steatosis, inflammation, ballooning scores (Kleiner criteria); key to steatosis score / ballooning score: severity score per Kleiner's criteria on H&E sections; fibrosis area score (sirius red-positive area): unit not given here. Particulars: for fibrosis area score (sirius red-positive area) / NAFLD activity score (NAS): telmisartan 10 mg/kg p.o., once daily 6 to 9 weeks of age; for fibrosis area score (sirius red-positive area): vehicle 0.89±0.19; for NAFLD activity score (NAS): vehicle 4.38±0.52. An excerpt: (§1) Pathogen-free C57BL/6 mice on the 14th day of pregnancy were obtained from Japan SLC, Inc. (Japan).
(§2) NASH was established in male mice by a single subcutaneous injection of […] streptozotocin (STZ, Sigma, USA) 2 days after birth and feeding with a high-fat diet (CLEA Japan Inc., Japan) ad libitum after 4 weeks of age (day 28±2).
On the day before the start of administration based on the body weight of mice, the NASH mice at 6 weeks of age (day 42±2) prepared in Example 1 were randomly divided into 3 groups of 8 mice.
The present inventors selected trametinib as a substance expected to have a therapeutic effect on non-alcoholic steatohepatitis through a screening method using artificial intelligence (AI) deep learning technology. In order to identify whether the substance has an effect on non-alcoholic steatohepatitis, the 3 groups of mice were each intraperitoneally or orally administered with the following compounds at an amount of about […]. As the negative control group of trametinib in the present invention, the vehicle administration group was treated with a solvent of the same amount used for compound dissolution. Telmisartan (Boehringer Ingelheim GmbH, Germany) was used in the positive control group. The telmisartan is a compound which has anti-NASH, anti-fibrosis, and anti-inflammatory effects in NASH and in a liver disease animal model related to NASH.
Group 1 (vehicle administration group: negative control group): 8 NASH mice were intraperitoneally administered with a vehicle (4% DMSO in saline) in a volume of 5 mL/kg once daily from 6 weeks to 9 weeks of age.
Group 2 (telmisartan administration group: positive control group): 8 NASH mice were orally administered with purified water supplemented with telmisartan at a dose of 10 mg/kg once daily from 6 weeks to 9 weeks of age.
Group 3 (trametinib administration group: experimental group): 8 NASH mice were intraperitoneally administered with a vehicle supplemented with trametinib at a dose of 2 mg/kg once daily from 6 weeks to 9 weeks of age.
(§3) The body weight of each mouse was measured daily during the administration period, and the survival rate, clinical symptoms, and behaviors of each mouse were monitored daily.
For histological analysis of liver tissue, mice in Groups 1 to 3 were sacrificed at 9 weeks of age, and the liver was excised therefrom.
For H&E staining, after sectioning liver tissue, a liver tissue slide fixed with paraffin was immersed in a xylene solution for 3 minutes to remove the paraffin. Thereafter, in order to remove the xylene, the liver tissue slide was immersed in 100% ethanol for 3 minutes and then hydrated with distilled water. Subsequently, the liver tissue slide was immersed in a hematoxylin solution for 5 to 10 minutes and then hydrated with distilled water for 5 minutes, followed by quickly immersing it twice in a 1% HCl solution, and then hydrating with distilled water. Then, the liver tissue slide was immersed in a 1% ammonia solution for 2 minutes to stain the tissue blue. Thereafter, the liver tissue stained blue was immersed in an eosin solution for 2 minutes, followed by immersing the resultant in ethanol for about 3 to 5 minutes. Lastly, the liver tissue was immersed in a xylene solution, whereupon the thus-stained liver fragment was observed under a microscope.
The NAFLD activity score (NAS) is a combined value obtained by considering each condition of steatosis, inflammation, and ballooning, which are observed in a liver section stained with H&E. The NAFLD score was calculated according to Kleiner's criteria (Kleiner DE et al., 2005).
Steatosis, inflammation, and ballooning scores were determined according to severity of symptoms based on observation in H&E-stained liver sections.
For sirius red staining, a sirius red reagent was maintained in an equilibrium state and stirred gently. […]

The subject of assay [2] is NASH model mice. As to the kind of experiment: NASH model mice (STZ + high-fat diet), oral trametinib study: liver histology, NAFLD activity score, fibrosis area, liver weight. The assay is classed as in vivo, mouse (C57BL/6). Also noted: fibrosis area score (sirius red-positive area): unit not given here. The following applies: for fibrosis area score (sirius red-positive area) / NAFLD activity score (NAS): telmisartan 10 mg/kg p.o., once daily 6 to 9 weeks of age; for fibrosis area score (sirius red-positive area): vehicle 0.69±0.13; for NAFLD activity score (NAS): vehicle 4.29±0.49.
Description: as §1, §2
In order to determine a safe oral administration dose of trametinib, as in Example 2, the NASH mice in Example 1 were randomly divided into 3 groups of 7 or 8 mice.Thereafter, the mice of 3 groups were orally administered with the following compounds at about […].
Group 1 (vehicle administration group:negative control group): 7 NASH mice were orally administered with a vehicle (1% DMSO in saline) in a volume of 10 mL/kg once daily from 6 weeks to 9 weeks of age.
Group 2 (telmisartan administration group:positive control group): 8 NASH mice were orally administered with purified water supplemented with telmisartan at a dose of 10 mg/kg (in a volume of 10 mL/kg) once daily from 6 weeks to 9 weeks of age.
Group 3 (trametinib administration group:experimental group): 8 NASH mice were orally administered with a vehicle supplemented with trametinib at a dose of 0.2 mg/kg (in a volume of 10 mL/kg) once daily from 6 weeks to 9 weeks of age.
as §3
For histological analysis of liver tissue, mice in Groups 1 to 3 of Example 5 were sacrificed at 9 weeks of age, and then H&E staining, NAFLD activity score measurement, and sirius red staining were performed according to the method of Example 3.
The NAFLD activity score for liver tissue was estimated according to the method of Example 3-2.
According to the method of Example 3-4, a percentage of a fibrosis area due to inflammation and a value of a sirius red-positive area were each estimated through sirius red staining.
Statistical analysis of the data of the Examples above was performed using the Bonferroni Multiple Comparison Test. p<0.05 was regarded as statistically significant.

The mark [3] stands for this setting: trametinib 2 mg/kg i.p. once daily, 6 to 9 weeks of age.
Setting [4] is: trametinib 0.2 mg/kg p.o. once daily, 6 to 9 weeks of age.

Values joined by “and” are separate entries in the source; they are usually repeats but may differ in a detail not shown here. Equal values may be shown once.

For the molecule `CCCc1nc2c(C)cc(-c3nc4ccccc4n3C)cc2n1Cc1ccc(-c2ccccc2C(=O)O)cc1` [telmisartan], in the assay on NASH model mice [1] (telmisartan 10 mg/kg p.o. once daily, 6 to 9 weeks of age, 8 mice, vehicle 6 subjects), the “number of subjects with a steatosis score of 1” value came out at 1. The “fibrosis area score (sirius red-positive area)” value in the assay with NASH model mice [1] (trametinib 2 mg/kg i.p.) was 0.40±0.15 and 0.4; in the assay with NASH model mice [2] (trametinib 0.2 mg/kg p.o.) it was 0.44±0.06 and 0.4. Also, the results for the “NAFLD activity score (NAS)” value in the assay with NASH model mice [1] (trametinib 2 mg/kg i.p.) and with NASH model mice [2] (trametinib 0.2 mg/kg p.o.) were 2.75±0.46 and 2.25±0.46, respectively.

On to `CC(=O)Nc1cccc(-n2c(=O)n(C3CC3)c(=O)c3c(Nc4ccc(I)cc4F)n(C)c(=O)c(C)c32)c1` [trametinib, N—(3—{3—cyclopropyl—5-[(2-fluoro-4-iodophenyl)amino]-6,8-dimethyl-2,4,7-trioxo-3 ,4,6,7-tetrahydropyrido [4,3-d]pyrimidin-1(2H)-yl}phenyl)acetamide], for which the steatosis score with NASH model mice [1] (trametinib 2 mg/kg i.p. once daily from 6 to 9 weeks of age, H&E liver sections, vehicle average 0.8) was 0; with NASH model mice [2] (trametinib 0.2 mg/kg p.o. once daily, 6 to 9 weeks of age, mean ± standard deviation, vehicle 0.86±0.38) it was 0.38±0.52 and 0.4. Further, in the assay on NASH model mice [1] (setting [3]), the “fibrosis (sirius red staining) compared to vehicle administration group” value was “alleviated”. The “pathological conditions of liver tissue (H&E staining) compared to vehicle administration group” value in the assay on NASH model mice [1] (setting [3]) and in the assay with NASH model mice [2] (setting [4]) was “improved” throughout. Moreover, the “reduction of average liver weight compared to vehicle administration group” value in the assay on NASH model mice [1] (setting [3]) is 40%. Further, the “subjects with a ballooning score of 0, share of total number of subjects” value with NASH model mice [1] (setting [3]) came out at 100%. Further, in the assay with NASH model mice [1] (trametinib 2 mg/kg i.p. once daily, 6 to 9 weeks of age, 8 mice), the “number of subjects with a ballooning score of 0” value is “eight”. For the same molecule, the ballooning score in the assay with NASH model mice [1] (trametinib 2 mg/kg i.p. once daily, 6 to 9 weeks of age, all subjects) is 0. Also, the liver-to-body weight ratio in the assay with NASH model mice [1] (trametinib 2 mg/kg i.p. once daily, 6 to 9 weeks of age, vehicle 7.0±0.8%) is 5.3±0.96%; in the assay on NASH model mice [2] (trametinib 0.2 mg/kg p.o. once daily, 6 to 9 weeks of age, vehicle 8.7±0.8%), 7.4±0.8%. In addition, the average liver weight in the assay on NASH model mice [1] (trametinib 2 mg/kg i.p. once daily, 6 to 9 weeks of age, vehicle 1444±106 mg) turned out to be 873 ± 218 mg; in the assay on NASH model mice [2] (trametinib 0.2 mg/kg p.o. once daily, 6 to 9 weeks of age, vehicle 1776±189 mg), 1466 ± 169 mg. The “fibrosis area score (sirius red-positive area)” value in the assay on NASH model mice [1] (trametinib 2 mg/kg i.p.) is 0.50±0.13 and 0.5; in the assay with NASH model mice [2] (trametinib 0.2 mg/kg p.o.) it was 0.34±0.15 and 0.3. For the same molecule, the “NAFLD activity score (NAS)” value is 2.63±0.52 in the assay with NASH model mice [1] (trametinib 2 mg/kg i.p.) and 2.88±1.13 in the assay on NASH model mice [2] (trametinib 0.2 mg/kg p.o.). Moreover, the “percentage of fibrosis area compared to vehicle administration group” value in the assay with NASH model mice [1] (trametinib 2 mg/kg i.p., sirius red staining, p<0.0001) is listed as “remarkable decrease”; in the assay with NASH model mice [2] (trametinib 0.2 mg/kg p.o., sirius red staining), “reduced”. For the same molecule, the “pathological conditions (sirius red staining) compared to vehicle administration group” value in the assay with NASH model mice [2] (setting [4]) is “improved”. In the assay with NASH model mice [2] (trametinib 0.2 mg/kg p.o. once daily, 6 to 9 weeks of age, vehicle 2.71±0.49), the inflammation score was 1.75±0.71 and 1.8. For the same molecule, in the assay with NASH model mice [2] (trametinib 0.2 mg/kg p.o. once daily, 8 mice, vehicle 6 subjects), the “number of subjects with a steatosis score of 1” value was determined as 3.

Source of the values: patent US20220354849A1, “COMPOSITION FOR PREVENTING OR TREATING METABOLIC LIVER DISEASE” (STANDIGM INC., priority 2019, published 2022).
